Results as given in patent US20250312499A1, “KISSPEPTIN RECEPTOR (KISS1R) TARGETED THERAPEUTICS AND USES THEREOF” (priority 2024, published 2025).
Numbered stars: 1 amine (or outer) side, 2 acyl side, 3 side chain; on linkers, the order of the positions; unused ones are H or OH. Square brackets hold non-standard residues; d marks the D form. Peptide text beside a SMILES is read from it. * marks the point of attachment. DOTA = O=C(O)CN1CCN(CC(=O)O)CCN(CC(=O)*)CCN(CC(=O)O)CC1; Gly(N-(3-F-4-Me-benzyl)) = Cc1ccc(CNCC(=O)*)cc1F; Bpa = N[C@@H](Cc1ccc(C(=O)c2ccccc2)cc1)C(=O)O; Gly(Nα-4-MeO-benzyl) = COc1ccc(CNCC(=O)*)cc1; Api(1-amidino) = N=C(N)N1CCC(N)(C(=O)O)CC1; Hydrocinnamoyl(4-Me) = Cc1ccc(CCC(=O)*)cc1; Bip = N[C@@H](Cc1ccc(-c2ccccc2)cc1)C(=O)O; Phe(4-CN) = N#Cc1ccc(C[C@H](N)C(=O)O)cc1; X3 = CNC(=N)N1CCC(N[*:1])(C(=O)[*:2])CC1; HO(CH2CH2O)2CH2CH2CO = O=C(CCOCCOCCO)*; Phe(3-F) = N[C@@H](Cc1cccc(F)c1)C(=O)O; d2Nal = N[C@H](Cc1ccc2ccccc2c1)C(=O)O; dCya = N[C@H](CS(=O)(=O)O)C(=O)O; 4Pal = N[C@@H](Cc1ccncc1)C(=O)O; Cha = N[C@@H](CC1CCCCC1)C(=O)O; Lauroyl = CCCCCCCCCCCC(=O)*; 4Amb = NCc1ccc(C(=O)O)cc1; Octanoyl = CCCCCCCC(=O)*; Api = NC1(C(=O)O)CCNCC1; PEG2 = NCCOCCOCCC(=O)O; Ahx = NCCCCCC(=O)O; azaGly = NNC(=O)O; βAla = NCCC(=O)O; Sar = CNCC(=O)O

The compounds below were run against human kisspeptin receptor (Homo sapiens (Human), UniProt Q969F8) (assay: Human KISS1R binding assay (membrane competition binding)). Settings: 90 min at room temperature; competition with 0.2 nM [125I]-metastin (45-54); Flp-In T-Rex 293 kisspeptin membranes; metal complexes nonradioactive Ga, In, Lu; read-out: hKiSSR Binding Ki (90 min).
Chain of human kisspeptin receptor (Q969F8 whole entry): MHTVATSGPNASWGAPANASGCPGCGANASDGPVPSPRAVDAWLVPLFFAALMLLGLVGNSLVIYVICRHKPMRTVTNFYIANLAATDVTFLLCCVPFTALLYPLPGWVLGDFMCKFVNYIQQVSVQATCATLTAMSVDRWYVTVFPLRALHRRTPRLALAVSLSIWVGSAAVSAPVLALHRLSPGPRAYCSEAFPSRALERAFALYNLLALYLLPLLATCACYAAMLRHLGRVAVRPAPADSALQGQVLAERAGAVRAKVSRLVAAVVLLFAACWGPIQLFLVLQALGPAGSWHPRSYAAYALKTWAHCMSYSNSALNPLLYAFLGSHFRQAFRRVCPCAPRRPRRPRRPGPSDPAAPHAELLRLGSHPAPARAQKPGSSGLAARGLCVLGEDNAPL
Summary of the method: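 Radioligand competition: 0.2 nM [125I]-metastin (45-54) displaced by test ligand (usually 0–10,000 nM) over 90 min at room temperature, pH 7.4 buffer with 0.1% BSA. Receptor source is crude membrane (5–10 μg) from tetracycline-induced Flp-In T-Rex 293 cells. Bound label filtered and counted; Ki from non-linear regression.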

Compound	Ki [nM]
Cc1ccc(CNCC(=O)N2CCC(NC(=O)[C@H](CC(C)C)NC(=O)NNC(=O)[C@H](Cc3ccncc3)NC(=O)[C@@H](NC(=O)[C@H](CC(N)=O)NC(=O)c3ccc(CNC(=O)CN4CCN(CC(=O)O)CCN(CC(=O)O)CCN(CC(=O)O)CC4)cc3)[C@@H](C)O)(C(=O)N[C@@H](Cc3ccncc3)C(N)=O)CC2)cc1F [Compound 259] ({DOTA-4Amb}-NT[4Pal][azaGly]L[Api](Gly(N-(3-F-4-Me-benzyl)))[4Pal]-NH2)	10 to 100
Cc1ccc(CNCC(=O)N2CCC(NC(=O)[C@H](CC(C)C)NC(=O)NNC(=O)[C@H](Cc3ccccc3)NC(=O)[C@@H](CC(N)=O)NC(=O)[C@@H](CCC(=O)O)NC(=O)[C@@H](CCCCN)NC(=O)[C@@H](CC(N)=O)NC(=O)[C@@H](CC(N)=O)NC(=O)CCNC(=O)CN3CCN(CC(=O)O)CCN(CC(=O)O)CCN(CC(=O)O)CC3)(C(=O)N[C@@H](Cc3c[nH]c4ccccc34)C(N)=O)CC2)cc1F [Compound 16] ({DOTA-βAla}-[dN][dN][dK][dE][dN]F[azaGly]L[Api](Gly(N-(3-F-4-Me-benzyl)))W-NH2)	> 100
Cc1ccc(CNCC(=O)N2CCC(NC(=O)[C@H](CC(C)C)NC(=O)NNC(=O)[C@H](Cc3ccccc3)NC(=O)[C@@H](NC(=O)[C@H](CC(N)=O)NC(=O)[C@@H](Cc3c[nH]c4ccccc34)NC(=O)CCCCCNC(=O)CN3CCN(CC(=O)O)CCN(CC(=O)O)CCN(CC(=O)O)CC3)[C@@H](C)O)(C(=O)N[C@@H](Cc3c[nH]c4ccccc34)C(N)=O)CC2)cc1F [Compound 30] ({DOTA-Ahx}-[dW]NTF[azaGly]L[Api](Gly(N-(3-F-4-Me-benzyl)))W-NH2)	< 10
Cc1ccc(CNCC(=O)N2CCC(NC(=O)[C@H](CC(C)C)NC(=O)NNC(=O)[C@H](Cc3cccc(F)c3)NC(=O)[C@@H](NC(=O)[C@H](CC(N)=O)NC(=O)[C@H](CCC(=O)O)NC(=O)CN3CCN(CC(=O)O)CCN(CC(=O)O)CCN(CC(=O)O)CC3)[C@@H](C)O)(C(=O)N[C@@H](Cc3ccncc3)C(N)=O)CC2)cc1F [Compound 171] ({DOTA}-ENT[Phe(3-F)][azaGly]L[Api](Gly(N-(3-F-4-Me-benzyl)))[4Pal]-NH2)	10 to 100
Cc1ccc(CCC(=O)NCCOCCOCCC(=O)N[C@H](Cc2ccc(O)cc2)C(=O)N[C@@H](CCCCNC(=O)CN2CCN(CC(=O)O)CCN(CC(=O)O)CCN(CC(=O)O)CC2)C(=O)N[C@@H](CC(N)=O)C(=O)N[C@H](C(=O)N[C@@H](Cc2ccccc2)C(=O)NNC(=O)N[C@@H](CC(C)C)C(=O)NC2(C(=O)N[C@@H](Cc3ccccc3)C(N)=O)CCN(C(=N)N)CC2)[C@@H](C)O)cc1 [Compound 322] ({Hydrocinnamoyl(4-Me)-PEG2}-[dY]K(DOTA)NTF[azaGly]L[Api(1-amidino)]F-NH2)	< 10
Cc1ccc(CNCC(=O)N2CCC(NC(=O)[C@H](CC(C)C)NC(=O)NNC(=O)[C@H](Cc3ccccc3)NC(=O)CCCCCNC(=O)[C@H](Cc3ccc(O)cc3)NC(=O)CNC(=O)CN3CCN(CC(=O)O)CCN(CC(=O)O)CCN(CC(=O)O)CC3)(C(=O)N[C@@H](Cc3c[nH]c4ccccc34)C(N)=O)CC2)cc1F [Compound 305] ({DOTA}-GY[Ahx]F[azaGly]L[Api](Gly(N-(3-F-4-Me-benzyl)))W-NH2)	< 10
CNCC(=O)N1CCC(NC(=O)[C@H](CC(C)C)NC(=O)NNC(=O)[C@H](CC2CCCCC2)NC(=O)[C@@H](NC(=O)[C@H](CC(N)=O)NC(=O)[C@H](CCCCNC(=O)CN2CCN(CC(=O)O)CCN(CC(=O)O)CCN(CC(=O)O)CC2)NC(=O)[C@@H](Cc2ccc(O)cc2)NC(=O)CCOCCOCCNC(=O)CCc2ccc(C)cc2)[C@@H](C)O)(C(=O)N[C@@H](Cc2c[nH]c3ccccc23)C(N)=O)CC1 [Compound 387] ({Hydrocinnamoyl(4-Me)-PEG2}-[dY]K(DOTA)NT[Cha][azaGly]L[Api](Sar)W-NH2)	< 10
COc1ccc(CNCC(=O)N2CCC(NC(=O)[C@H](CC(C)C)NC(=O)NNC(=O)[C@H](Cc3ccccc3)NC(=O)[C@@H](NC(=O)[C@H](CC(N)=O)NC(=O)[C@@H](Cc3c[nH]c4ccccc34)NC(=O)[C@@H](Cc3ccc(O)cc3)NC(=O)CCCCCNC(=O)CN3CCN(CC(=O)O)CCN(CC(=O)O)CCN(CC(=O)O)CC3)[C@@H](C)O)(C(=O)N[C@@H](Cc3ccncc3)C(N)=O)CC2)cc1 [Compound 293] ({DOTA-Ahx}-[dY][dW]NTF[azaGly]L[Api](Gly(Nα-4-MeO-benzyl))[4Pal]-NH2)	< 10
Cc1ccc(CNCC(=O)N2CCC(NC(=O)[C@H](CC(C)C)NC(=O)NNC(=O)[C@H](Cc3ccccc3)NC(=O)[C@@H](NC(=O)[C@H](CCC(=O)O)NC(=O)[C@H](CCCCNC(=O)CN3CCN(CC(=O)O)CCN(CC(=O)O)CCN(CC(=O)O)CC3)NC(=O)CCOCCOCCO)[C@@H](C)O)(C(=O)N[C@@H](Cc3ccncc3)C(N)=O)CC2)cc1F [Compound 252] ({HO(CH2CH2O)2CH2CH2CO}-K(DOTA)ETF[azaGly]L[Api](Gly(N-(3-F-4-Me-benzyl)))[4Pal]-NH2)	> 100
Cc1ccc(CNCC(=O)N2CCC(NC(=O)[C@H](CC(C)C)NC(=O)NNC(=O)[C@H](Cc3ccccc3)NC(=O)[C@@H](NC(=O)[C@H](CC(N)=O)NC(=O)[C@@H](Cc3c[nH]c4ccccc34)NC(=O)[C@H](N)Cc3ccc(O)cc3)[C@@H](C)O)(C(=O)N[C@@H](Cc3c[nH]c4ccccc34)C(N)=O)CC2)cc1F [Compound 402] (H-[dY][dW]NTF[azaGly]L[Api](Gly(N-(3-F-4-Me-benzyl)))W-NH2)	< 10
CNCC(=O)N1CCC(NC(=O)[C@H](CC(C)C)NC(=O)NNC(=O)[C@H](Cc2ccccc2)NC(=O)[C@@H](NC(=O)[C@H](CC(N)=O)NC(=O)[C@@H](Cc2ccc3ccccc3c2)NC(=O)[C@H](N)Cc2ccc(O)cc2)[C@@H](C)O)(C(=O)N[C@@H](Cc2c[nH]c3ccccc23)C(N)=O)CC1 [Compound 408] (H-[dY][d2Nal]NTF[azaGly]L[Api](Sar)W-NH2)	< 10
Cc1ccc(CNCC(=O)N2CCC(NC(=O)[C@H](CC(C)C)NC(=O)NNC(=O)[C@H](Cc3ccccc3)NC(=O)[C@@H](NC(=O)[C@H](CC(N)=O)NC(=O)[C@H](Cc3ccc(-c4ccccc4)cc3)NC(=O)[C@@H](Cc3ccc(O)cc3)NC(=O)CCCCCNC(=O)CN3CCN(CC(=O)O)CCN(CC(=O)O)CCN(CC(=O)O)CC3)[C@@H](C)O)(C(=O)N[C@@H](Cc3c[nH]c4ccccc34)C(N)=O)CC2)cc1F [Compound 363] ({DOTA-Ahx}-[dY][Bip]NTF[azaGly]L[Api](Gly(N-(3-F-4-Me-benzyl)))W-NH2)	< 10
CC(C)C[C@H](NC(=O)NNC(=O)[C@H](Cc1ccccc1)NC(=O)[C@@H](NC(=O)[C@H](CC(N)=O)NC(=O)[C@H](Cc1ccc(C(=O)c2ccccc2)cc1)NC(=O)[C@@H](Cc1ccc(O)cc1)NC(=O)CCCCCNC(=O)CN1CCN(CC(=O)O)CCN(CC(=O)O)CCN(CC(=O)O)CC1)[C@@H](C)O)C(=O)NC1(C(=O)N[C@@H](Cc2c[nH]c3ccccc23)C(N)=O)CCN(C(=N)N)CC1 [Compound 183] ({DOTA-Ahx}-[dY][Bpa]NTF[azaGly]L[Api(1-amidino)]W-NH2)	< 10
Cc1ccc(CCC(=O)NCCOCCOCCC(=O)N[C@H](Cc2ccc(O)cc2)C(=O)N[C@@H](CCCCNC(=O)CN2CCN(CC(=O)O)CCN(CC(=O)O)CCN(CC(=O)O)CC2)C(=O)N[C@@H](CC(N)=O)C(=O)N[C@H](C(=O)N[C@@H](Cc2ccccc2)C(=O)NNC(=O)N[C@@H](CC(C)C)C(=O)NC2(C(=O)N[C@@H](Cc3ccc(C#N)cc3)C(N)=O)CCN(C(=N)N)CC2)[C@@H](C)O)cc1 [Compound 333] ({Hydrocinnamoyl(4-Me)-PEG2}-[dY]K(DOTA)NTF[azaGly]L[Api(1-amidino)][Phe(4-CN)]-NH2)	< 10
Cc1ccc(CNCC(=O)N2CCC(NC(=O)[C@H](CC(C)C)NC(=O)NNC(=O)[C@H](Cc3ccccc3)NC(=O)CCCCCNC(=O)[C@@H](CS(=O)(=O)O)NC(=O)[C@@H](CS(=O)(=O)O)NC(=O)[C@@H](CS(=O)(=O)O)NC(=O)CN3CCN(CC(=O)O)CCN(CC(=O)O)CCN(CC(=O)O)CC3)(C(=O)N[C@@H](Cc3c[nH]c4ccccc34)C(N)=O)CC2)cc1F [Compound 131] ({DOTA}-[dCya][dCya][dCya][Ahx]F[azaGly]L[Api](Gly(N-(3-F-4-Me-benzyl)))W-NH2)	< 10
CCCCCCCC(=O)N[C@H](Cc1ccc(O)cc1)C(=O)N[C@H](CCCCNC(=O)CN1CCN(CC(=O)O)CCN(CC(=O)O)CCN(CC(=O)O)CC1)C(=O)N[C@@H](CC(N)=O)C(=O)N[C@H](C(=O)N[C@@H](CC1CCCCC1)C(=O)NNC(=O)N[C@@H](CC(C)C)C(=O)NC1(C(=O)N[C@H](Cc2c[nH]c3ccccc23)C(N)=O)CCN(C(=O)CNC)CC1)[C@@H](C)O [Compound 355] (Octanoyl-[dY][dK](DOTA)NT[Cha][azaGly]L[Api](Sar)[dW]-NH2)	< 10
CNC(=N)N1CCC(NC(=O)[C@H](CC(C)C)NC(=O)NNC(=O)[C@H](Cc2ccccc2)NC(=O)CCCCCNC(=O)CN2CCN(CC(=O)O)CCN(CC(=O)O)CCN(CC(=O)O)CC2)(C(=O)N[C@@H](Cc2c[nH]c3ccccc23)C(N)=O)CC1 [Compound 189] ({DOTA-Ahx}-F[azaGly]L[X3]W-NH2)	> 100
Cc1ccc(CNCC(=O)N2CCC(NC(=O)[C@H](CC(C)C)NC(=O)NNC(=O)[C@H](Cc3ccccc3)NC(=O)c3ccc(CNC(=O)[C@@H](CS(=O)(=O)O)NC(=O)[C@@H](CS(=O)(=O)O)NC(=O)CN4CCN(CC(=O)O)CCN(CC(=O)O)CCN(CC(=O)O)CC4)cc3)(C(=O)N[C@@H](Cc3c[nH]c4ccccc34)C(N)=O)CC2)cc1F [Compound 146] ({DOTA}-[dCya][dCya][4Amb]F[azaGly]L[Api](Gly(N-(3-F-4-Me-benzyl)))W-NH2)	< 10
CCCCCCCCCCCC(=O)N[C@H](Cc1ccc(O)cc1)C(=O)N[C@@H](CCCCNC(=O)CN1CCN(CC(=O)O)CCN(CC(=O)O)CCN(CC(=O)O)CC1)C(=O)N[C@@H](CC(N)=O)C(=O)N[C@H](C(=O)N[C@@H](Cc1ccccc1)C(=O)NNC(=O)N[C@@H](CC(C)C)C(=O)NC1(C(=O)N[C@@H](Cc2ccc(O)cc2)C(N)=O)CCN(C(=N)N)CC1)[C@@H](C)O [Compound 331] (Lauroyl-[dY]K(DOTA)NTF[azaGly]L[Api(1-amidino)]Y-NH2)	< 10
